Reference: patent US20260053778A1, “USE OF NOVEL PPAR ACTIVITY MODULATOR FOR PREVENTION, AMELIORATION OR TREATMENT OF DEGENERATIVE BRAIN DISEASES” (POSTECH RESEARCH AND BUSINESS DEVELOPMENT FOUNDATION, priority 2022, published 2026)

Assays:
[1] = system: RAW 264.7 cell line; experiment: Cell viability assay (MTT), RAW 264.7; assay type: cell-based; settings: RAW 264.7, 48 h, at higher concentrations
Method: Cell viability was measured by a chromogenic assay that biologically reduces 3-(4,5-dimethyl-thiazol-2-yl)-2,5-diphenyltetrazolium bromide (MTT) to formazan in living cells. Briefly, cells were cultured in 96-well plates in a final volume of 100 μL. After 24 h, the culture medium was replaced with fresh medium containing DTMB compound, and the cells were cultured for another 48 h. Next, MTT (dissolved in PBS at 5 mg/mL) was added to the culture medium. The cells were cultured in the dark at 37° C. for 1 h, and then the supernatant was removed from the wells. The formazan crystals were dissolved by adding total MTT solvent (4 mM HCl and 0.1% Nonidet P-40, both dissolved in isopropanol), and the absorbance was measured at 570 nm using a microplate reader, Infinite 200 Pro NanoQuant microplate reader (TECAN, Switzerland).

[2] = system: 5×FAD Alzheimer's dementia-induced mice; experiment: Immunohistochemistry of Aβ aggregates in brain tissue; assay type: in vivo, mouse; settings: hippocampus and cerebral cortex regions, 6e10 immunohistochemistry, 5×FAD mice, DTMB 10 mg/kg orally
Method: In the case of Alzheimer's dementia, an increase in the formation of Aβ aggregates in brain tissue is observed as a common pathological phenomenon. Therefore, to determine whether DTMB administration inhibited the formation of Aβ aggregates, the amount of AB aggregates in the hippocampus and cerebral cortex, which are closely related to memory ability, was measured using immunochemical staining in 5×FAD Alzheimer's dementia-induced mice.
The mice were perfused with ice-cold phosphate-buffered saline (PBS). The brain tissue was used separately for molecular analysis or immunohistochemistry. The right hemisphere was fixed with 4% PFA and transferred to a sucrose solution (30%) for 24 hours. The right hemisphere was frozen in the optimal cutting temperature compound of dry ice. Coronal sections (18 μm thick) including the hippocampus were cut and prepared on slide glass. The tissue sections were then permeabilized and blocked with blocking solution (5% goat serum and 0.2% Triton X-100 in PBS) for 1 h at room temperature. Primary antibody incubation was performed overnight at 4° C. using anti-6e10 antibody (Biolegend, Japan, 1:100). After washing, the sections were incubated with the appropriate secondary antibody (1:500) for 1 h at room temperature. […] Fluorescence was measured by calculating the % area and analyzed using ImageJ. […]

[3] = target: T1, PPARα (Homo sapiens, UniProt Q07869); experiment: GAL4-transactivation assay in HEK293A cells, PPARα; assay type: cell-based; settings: GAL4 reporter, 24 h, compared with WY14643
T1 construct: expressed in transfected cells; host or cells: HEK293A
T1 sequence (Q07869 1-468): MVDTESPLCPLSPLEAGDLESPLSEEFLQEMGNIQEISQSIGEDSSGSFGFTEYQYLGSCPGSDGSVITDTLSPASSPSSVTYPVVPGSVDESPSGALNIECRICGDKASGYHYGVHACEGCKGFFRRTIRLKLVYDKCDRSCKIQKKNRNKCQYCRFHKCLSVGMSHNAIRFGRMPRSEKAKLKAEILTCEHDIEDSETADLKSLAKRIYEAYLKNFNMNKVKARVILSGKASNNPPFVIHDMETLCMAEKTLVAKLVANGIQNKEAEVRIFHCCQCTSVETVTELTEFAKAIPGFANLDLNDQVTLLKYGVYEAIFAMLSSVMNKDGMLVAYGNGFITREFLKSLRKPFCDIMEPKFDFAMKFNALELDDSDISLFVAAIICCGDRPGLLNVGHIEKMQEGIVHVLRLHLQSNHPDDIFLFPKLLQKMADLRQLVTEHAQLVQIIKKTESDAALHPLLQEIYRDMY
Method: A GAL4-transactivation assay experiment was performed to determine whether the drug was bound to the PPAR ligand binding site. HEK293A cells were transfected with GAL4-reporter plasmid and pGL4.74 (Promega, Madison, WI, USA) as an internal standard via electroporation using the Neon Transfection System (Invitrogen, Carlsbad, CA, USA). All vectors were kindly provided by Professor Kanno Yuichiro, Toho University, Japan. After overnight culture, cells were treated with DTMB and each positive control compound for 24 h. Cells were then harvested, resuspended in luciferase lysis buffer (Promega), and incubated on ice for 10 min. Cell debris was removed by centrifugation at 20,000×g, 4° C. for 10 min, and the supernatant was used for the luciferase assay. Luciferase activity was measured using the Dual Luciferase Reporter Assay System (Promega) according to the manufacturer's instructions. In the measurement experiment, firefly luciferase activity was normalized to Renilla luciferase activity. To investigate the concentration-dependent effect of DTMB drug, EC50 values were measured by treating various concentrations of DTMB.

[4] = Body weight and organ weight after 12 weeks of treatment; assay type: in vivo, mouse; settings: DTMB 10 mg/kg orally, 12 weeks (3 months), versus vehicle-treated mice
Method: 5×FAD (Tg6799) mice were purchased from Jackson Laboratory (Bar Harbor, ME, USA), and male transgenic mice were mated with B6/SJL hybrid female mice. Genotyping was performed by PCR analysis of tail-cut samples. In this example, 8-week-old female mice were used for drug administration, and wild-type littermates were used as controls. All procedures related to animal behavior experiments were approved by the Institutional Animal Care and Use Committee of Pohang University of Science and Technology (POSTECH IACUC). All animal experiments were performed in accordance with the principles of the Animal Welfare Act, the PHS Animal Welfare Policy, and the NIH Guide for the Care and Use of Laboratory Animals. All mice were maintained under general conditions in the POSTECH animal facility according to institutional guidelines.
To evaluate the effect of DTMB on 5×FAD mice, DTMB (10 mg/kg) and vehicle (1% carboxymethylcellulose and 10% DMSO) were orally administered to four groups (wild type, wild type+DTMB, 5×FAD, and 5×FAD+DTMB) 6 days per week for 3 months.

## COc1ccc(-c2cc(=O)oc3c(C)c(OC(=O)[C@H](Cc4c[nH]c5ccccc45)NC(=O)OC(C)(C)C)ccc23)cc1 [DTMB, [4-(4-Methoxyphenyl)-8-methyl-2-oxochromen-7-yl](2S)-3-(1H-indol-3-yl)-2-[(2-methylpropan-2-yl)oxycarbonylamino]propanoate]
[1]
  Cytotoxicity (MTT): no cytotoxicity
[2]
  Amount of Aβ aggregates: significantly reduced
[3]
  PPARα activation versus positive control: activated at a lower concentration than WY14643
[4]
  Body weight: no change
  Tissue weight: no change
